Assay results from US20050182122A1, “Method of treating abnormal cell growth using indolinone compounds” (priority 2003, published 2005).
Where “and” joins values, the source holds several entries; their conditions need not be identical. Equal entries are not always repeated.

Assays:
blood/plasma half life = format: in vivo
Description: Administration of the compound of formula 1, or its active metabolite 2, in an effective dosing regimen, must take into account the long blood/plasma half lives of these two compounds, approximately 40 and 80 hours, respectively, as well as their safety profiles. Thus, there is a need for safe and therapeutically effective dosing regimens for administering the compounds of formula 1 and 2 to a mammal, including a human, for treating abnormal cell growth, such as cancer.

FLT3-ITD xenograft tumor = FLT3-ITD xenograft tumor model; format: in vivo; details: pre-clinical experiments
[1] = test system: bone marrow engraftment model; test: bone marrow engraftment model; format: in vivo; details: pre-clinical experiments
primary or secondary AML = test: Example 2: AML patients, clinical activity by WHO criteria; format: in vivo, human; set-up: key to Best Response: NE: not evaluated; PR: partial response; SD: stable disease; PD: Progressive Disease; details: for Best Response: AML, one line per patient
Description: (§1) Constitutively activating mutations of the receptor FLT3 are present in approximately 30% of patients with AML and correlate with poor prognosis. […] Two dose levels (50 and 75 mg) and 2 schedules (Group A: 4 weeks of treatment followed by a 14 day rest period; and Group B: 4 weeks of treatment followed by a 7 day rest period) were evaluated in 3 cohorts of patients. Flt3 genotyping for ITD and D835 mutations was performed to enable retrospective stratification. Correlative laboratory studies to assess inhibition of target phosphorylation, and modulation of signaling pathways regulating apoptosis and proliferation were performed by Western blot and immunohistochemistry analyses and FL expression and IHC were conducted.

[2] = Example 2: AML patients, toxicities; format: in vivo, human
Description: as §1

FLT3 = test: Example 2: AML patients, FLT3 phosphorylation and expression (Western blot, immunohistochemistry); format: in vivo, human
Description: as §1

[3] = test system: metastatic renal cell carcinoma (RCC); test: Example 1: metastatic renal cell carcinoma patients, best response by RECIST; format: in vivo, human
From the text: (§2) Eligibility included measurable disease, ECOG performance status of 0 or 1, failure of one prior cytokine-based therapy due to disease progression or toxicity, and adequate cardiac function as defined by normal ejection fraction on MUGA or ECHO. Patients were excluded if they had significant cardiac events within the past 12 months or received more than one prior cytokine regimen.

[4] = Example 1: metastatic renal cell carcinoma patients, adverse events; format: in vivo, human
From the text: as §2

[5] = Example 3: solid tumor patients, dose limiting toxicities; format: in vivo, human
From the text: (§3) The patients were characterized as follows: 15 male, 13 female; age range 33-78 years; median age 55 years; median PS 0; WHO PS, 0 (22 patients), 1 (3 patients), 2 (3 patients). The number of pretreatment regimens ranged from 0 to 9, with a median of 2. The tumors types (number of patients) were: renal cell carcinoma (4); neuroendocrine tumors (4); colorectal cancer (3); non-small cell lung cancer (2); mesotheliomas (2); uterine carcinoma (2); breast cancer (2); pancreas (2); angiosarcoma (2); esophagus (1); undifferentiated carcinoma of nasopharynx (1); parotid adenocarcinoma (1); melanoma (1); gastrointestinal stromal tumor (1). […] All other trials were dosed with flat doses (i.e., mg). All dosage amounts are free-base equivalents. A plus symbol (+) following the number of cycles indicates the patient was still on study at the date the data were summarized.

solid tumors = test: Example 3: solid tumor patients, antitumor activity; format: in vivo, human
From the text: as §3

[6] = 63 metastatic RCC patients, 50 mg daily orally 4 weeks, 2-week rest
[7] = preliminary safety data N=44, 50 mg daily 4 weeks/2-week rest, mostly grades 1 and 2
[8] = preliminary safety data N=44, without signs of pancreatitis
[9] = 15 AML patients, 50 or 75 mg daily
[10] = 15 AML patients, 50 or 75 mg daily, 4 weeks treatment, 14 or 7 day rest, mainly grade 1-2
[11] = all dosing schedules, 23 evaluable

Question: For CCN(CC)CCNC(=O)c1c(C)[nH]c(/C=C2\C(=O)Nc3ccc(F)cc32)c1C [Compound 1, 5-(5-fluoro-2-oxo-1,2-dihydroindol-(3Z)-ylidenemethyl)-2,4-dimethyl-1H-pyrrole-3-carboxylic acid (2-diethylaminoethyl)-amide], which half-life (blood/plasma half life) is on record?
Answer: Its half-life is about 40 h.

Question: And the “efficacy in FLT3-ITD xenograft tumor model” value (FLT3-ITD xenograft tumor)?
Answer: Its value is “dose-dependent efficacy”.

Question: What about the “efficacy in bone marrow engraftment model” value [1] of the same compound?
Answer: Its value is “dose-dependent efficacy”.

Question: And the “duration of partial response” value (primary or secondary AML; one patient with FLT3 ITD mutation, Group B (50 mg daily, 4 weeks treatment/7 day rest))?
Answer: Its value is 4 month.

Question: And the “tolerability in advanced AML population” value ([2]; 50 mg dose)?
Answer: The value was “tolerable”.

Question: What about the target inhibition (FLT3; 50 mg dose) of the same compound?
Answer: The target inhibition was “consistently observed”.

Question: What about the “time to decreased FLT3 protein expression” value (FLT3; patient with FLT3 ITD mutation, Group B, consistent with decreasing blast counts) of the same compound?
Answer: Its value is at most 8 days.

Question: What about the “FLT3 phosphorylation after administration” value (FLT3; patient with FLT3 ITD mutation, Group B, similar in 2 other FLT3 mutant patients) of the same compound?
Answer: The value was “inhibition of FLT3 phosphorylation”.

Question: Which results are given for CCN(CC)CCNC(=O)c1c(C)[nH]c(/C=C2\C(=O)Nc3ccc(F)cc32)c1C [5-(5-fluoro-2-oxo-1,2-dihydroindol-(3Z)-ylidenemethyl)-2,4-dimethyl-1H-pyrrole-3-carboxylic acid (2-diethylaminoethyl)-amide]?
Answer: taken off study for PD ([3]; 63 metastatic RCC patients): Twelve; Best response by RECIST: confirmed partial, patients [3, 6]: 16%; Best response by RECIST: progression, patients [3, 6]: 27%; Best response by RECIST: stable, patients [3, 6]: 41%; reduction of unidimensional measurement of at least 30%, awaiting confirmation of response status, patients [3, 6]: 10%; partial responders remaining progression free ([3]; of 10 patients with partial response, median follow-up of 4 months from start of therapy): 9; partial responders who progressed ([3]; of 10 patients with partial response, progressed at 5 months): 1 patient; taken off study for toxicity ([4]; 63 metastatic RCC patients): 8 patients; Grade 3 event: anemia ([4]; preliminary safety data N=44): 5%; Grade 3 event: leukocytopenia ([4]; preliminary safety data N=44): 5%; Grade 3 event: lymphopenia ([4]; preliminary safety data N=44): 32%; Grade 3 event: neutropenia ([4]; preliminary safety data N=44): 9%; grade 3 thrombocytopenia ([4]; preliminary safety data N=44): no patients; adverse event constipation, frequency [4, 7]: 34%; adverse event diarrhea, frequency [4, 7]: 46%; adverse event dyspepsia, frequency [4, 7]: 30%; adverse event fatigue/asthenia, frequency [4, 7]: 67%; adverse event nausea, frequency [4, 7]: 50%; adverse event stomatitis, frequency [4, 7]: 43%; Grade 3 event: elevated amylase [4, 8]: 9%; Grade 3 event: elevated lipase [4, 8]: 23%; decreases in left ventricular ejection fraction >20% without clinical symptoms ([4]; taken off the study): Two; evidence of clinical activity of short duration by WHO criteria (primary or secondary AML; [9]): 7 patients; morphologic response (less than 5% blasts in bone marrow, absence of blasts in peripheral blood), number of patients (primary or secondary AML; [9]): 1; partial responses (reduction of blasts by more than 50% in blood and bone marrow), number of patients (primary or secondary AML; [9]): 6; Best Response (primary or secondary AML; 50 mg daily, schedule 4/1 weeks treatment/rest): SD (3×) and PR (2×); Best Response (primary or secondary AML; 50 mg daily, schedule 4/2 weeks treatment/rest): PD (3×) and PR (3×) and Morph. R; Best Response (primary or secondary AML; 75 mg daily, schedule 4/2 weeks treatment/rest): PR; rebound of blasts during the treatment-free (rest) period, patients (primary or secondary AML; of the 7 patients with clinical activity): 2; responding patients with mutated FLT3 (ITD or D835) (primary or secondary AML; of the responding patients): Three; Grade 3 drug related fatigue, patients [2, 9]: 20%; toxicity: diarrhea [2, 10]: 13%; toxicity: fatigue [2, 10]: 27%; toxicity: nausea [2, 10]: 33%; toxicity: vomiting [2, 10]: 13%; dose limiting toxicity, fatigue grade 4 (number) ([2]; at 75 mg): One; patients with dose limiting toxicities at cycle 1 ([5]; 50 mg daily patients): 2 of 9; dose limiting toxicity grade 3 edema ([5]; 50 mg daily patients, cycle 1): 1 patient; dose limiting toxicity grade 4 thrombocytopenia ([5]; 50 mg daily patients, cycle 1): 1 patient; patients with dose limiting toxicities at cycle 1 ([5]; 75 mg daily patients): 5 of 11; dose limiting toxicity grade 3 asthenia ([5]; 75 mg daily patients, cycle 1): 3 patients; dose limiting toxicity grade 3 hypertension ([5]; 75 mg daily patients, cycle 1): 1 patient; dose limiting toxicity grade 5 tumor necrosis ([5]; 75 mg daily patients, cycle 1): 1 patient; patients with dose limiting toxicities at cycle 1 ([5]; 100 mg daily patients): 2 of 3; dose limiting toxicity grade 3 asthenia ([5]; 100 mg daily patients, cycle 1): 1 patient; dose limiting toxicity grade 3 hypertension ([5]; 100 mg daily patients, cycle 1): 1 patient; course of asthenia ([5]; cycle 1): progressively from grade 1 at week 1 to grade 3-4 at week 4; main dose-limiting toxicity ([5]; doses greater than or equal to 50 mg, appeared during cycle 1): Asthenia; rest period required for reversal of grade 3 asthenia ([5]; human, in vivo): 2-4 week; dose limiting toxicity at cycle 1 ([5]; the 150 mg daily patient): grade 3 asthenia; Tumor Progression (solid tumors; 50 mg Q2D, 3 patients): 3; Tumor Response (#) (solid tumors; 50 mg Q2D, 3 patients): 0; Tumor Stabilization (#) (solid tumors; 50 mg Q2D, 3 patients): 0; Tumor Stabilization, Time (solid tumors; 50 mg QD): 8 months; Tumor Progression (solid tumors; 50 mg QD, 6 patients): 5; Tumor Response (#) (solid tumors; 50 mg QD, 6 patients): 0; Tumor Stabilization (#) (solid tumors; 50 mg QD, 6 patients): 1; Tumor Progression (solid tumors; 75 mg QD, 9 patients): 0; Tumor Response (#) (solid tumors; 75 mg QD, 9 patients): 3; Tumor Stabilization (#) (solid tumors; 75 mg QD, 9 patients): 2; Tumor Stabilization, Time (solid tumors; 75 mg QD, one value per patient): 4 months and 5 months; Tumor Progression (solid tumors; 100 mg Q2D, 1 patient): 0; Tumor Response (#) (solid tumors; 100 mg Q2D, 1 patient): 1; Tumor Stabilization (#) (solid tumors; 100 mg Q2D, 1 patient): 0; Tumor Stabilization, Time (solid tumors; 100 mg QD): 6 months; Tumor Progression (solid tumors; 100 mg QD, 3 patients): 0; Tumor Response (#) (solid tumors; 100 mg QD, 3 patients): 2; Tumor Stabilization (#) (solid tumors; 100 mg QD, 3 patients): 1; Tumor Stabilization, Time (solid tumors; 150 mg QD): 3 months; Tumor Progression (solid tumors; 150 mg QD, 1 patient): 0; Tumor Response (#) (solid tumors; 150 mg QD, 1 patient): 0; Tumor Stabilization (#) (solid tumors; 150 mg QD, 1 patient): 1; Tumor Progression, totals (solid tumors; [11]): 8/23; Tumor Response (#), totals (solid tumors; [11]): 6/23; Tumor Stabilization (#), totals (solid tumors; [11]): 5/23

Question: Which half-life (blood/plasma half life) does the source give for CCNCCNC(=O)c1c(C)[nH]c(/C=C2\C(=O)Nc3ccc(F)cc32)c1C [Compound 2, 5-(5-fluoro-2-oxo-1,2-dihydroindol-(3Z)-ylidenemethyl)-2,4-dimethyl-1H-pyrrole-3-carboxylic acid (2-ethylaminoethyl)-amide] here?
Answer: Its half-life is about 80 h.
